Data on 2 molecules can be found in the NIST ThermoML archive (doi:10.1021/je400246s).

The conditions of series [1]: Crystal; DTA.
Series [2] in a line: Molar enthalpy of transition or fusion. The following applies: Crystal; DSC.

Each structure is given as a SMILES string. Numbers after ± are expanded uncertainties.

As to `O=C1c2ccccc2C(=O)c2c(Cl)cccc21` [1-chloroanthraquinone], the Normal melting temperature in series [1] is 162.1 ± 1.1 °C. In addition, in series [2], the “Molar enthalpy of transition or fusion” value was 6.99 ± 0.454 kcal/mol.

For `O=C(O)c1cccc(Cl)c1C(=O)c1ccccc1` [2-benzoyl-3-chlorobenzoic acid], in series [1], the Normal melting temperature was found to be 233.2 ± 1.1 °C. In series [2], the “Molar enthalpy of transition or fusion” value is 8.49 ± 0.526 kcal/mol.
